Test results from ChEMBL document CHEMBL1201862, “PubChem BioAssay data set” (2004).
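Tested at 5 concentrations; 48 h exposure; 96-well plates; endpoints linearly interpolated, else capped at highest concentration. GI50 marks 50% less growth.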 The source made the active and inactive calls. No stated cut-off is given here; in the data, active = GI50 up to about 1.1 µM and inactive = higher.

Experiments:
Assay in all cases: growth of human tumour cells (NCI), 48 h
[1] = tested on: NCI-H522
[2] = tested on: OVCAR-5
[3] = tested on: A498
[4] = tested on: LOX IMVI
[5] = tested on: U-251
[6] = tested on: SF-295
[7] = tested on: HCT-116
[8] = tested on: NCI/ADR-RES
[9] = tested on: Malme-3M
[10] = tested on: XF498
[11] = tested on: NCI-H226
[12] = tested on: SNB-78
[13] = tested on: DMS-114
[14] = tested on: OVCAR-3
[15] = tested on: HL-60
[16] = tested on: SW-620
[17] = tested on: EKVX
[18] = tested on: NCI-H460
[19] = tested on: RXF 393
[20] = tested on: CAKI-1

With `C=CC1(NC(=O)c2ccccc2)CCC(C(C)(C)C)CC1` (configuration not stated) the GI50 [1] was 30.8 µM (inactive), the GI50 [2] was 28.1 µM (inactive) and the GI50 [3] was 48.2 µM (inactive). For the same compound, the GI50 [4] was 20.3 µM (inactive), the GI50 [5] was 22.5 µM (inactive) and the GI50 [6] was 7.26 µM (inactive). The GI50 [7] was 22.8 µM (inactive), the GI50 [8] was 19.6 µM (inactive) and the GI50 [9] was 34.2 µM (inactive). The GI50 [10] was > 43.1 µM (inactive), the GI50 [11] was 27.8 µM (inactive) and the GI50 [12] was 39.1 µM (inactive). The GI50 [13] was 27.7 µM (inactive), the GI50 [14] was 29.6 µM (inactive) and the GI50 [15] was 14.4 µM (inactive). For the same compound, the GI50 [16] was 35.3 µM (inactive), the GI50 [17] was > 47.1 µM (inactive) and the GI50 [18] was 31.1 µM (inactive). The GI50 [19] was 49.3 µM (inactive).
For `Cc1ccccc1NC(=O)C(=O)C(C1OC(=O)c2ccccc21)[N+](=O)[O-]` (configuration not stated), the GI50 [1] was 56.9 µM (inactive), the GI50 [2] was > 100 µM (inactive) and the GI50 [3] was > 100 µM (inactive). The GI50 [4] was > 100 µM (inactive), the GI50 [5] was > 100 µM (inactive) and the GI50 [6] was > 100 µM (inactive). For the same compound, the GI50 [7] was > 100 µM (inactive), the GI50 [20] was > 100 µM (inactive) and the GI50 [10] was > 100 µM (inactive). The GI50 [11] was > 100 µM (inactive), the GI50 [12] was > 100 µM (inactive) and the GI50 [13] was > 100 µM (inactive). The GI50 [15] was > 100 µM (inactive), the GI50 [16] was > 100 µM (inactive) and the GI50 [17] was > 100 µM (inactive). For the same compound, the GI50 [18] was > 100 µM (inactive) and the GI50 [19] was > 100 µM (inactive).
For `S=C(NCCCCCCNC(=S)Nc1c2ccccc2nc2ccccc12)Nc1c2ccccc2nc2ccccc12`, the GI50 [1] was 64.6 µM (inactive), the GI50 [2] was > 84.1 µM (inactive) and the GI50 [3] was > 91.8 µM (inactive). For the same compound, the GI50 [4] was 72.4 µM (inactive), the GI50 [5] was > 91.8 µM (inactive) and the GI50 [6] was 68.4 µM (inactive). The GI50 [7] was 50.6 µM (inactive), the GI50 [20] was > 100 µM (inactive) and the GI50 [8] was > 88.1 µM (inactive). The GI50 [9] was > 100 µM (inactive), the GI50 [10] was > 89.9 µM (inactive) and the GI50 [11] was 10.8 µM (inactive). For the same compound, the GI50 [12] was > 87.7 µM (inactive), the GI50 [14] was > 90.2 µM (inactive) and the GI50 [15] was 77.1 µM (inactive). The GI50 [16] was 52.8 µM (inactive), the GI50 [17] was > 100 µM (inactive) and the GI50 [18] was 43.1 µM (inactive). The GI50 [19] was > 100 µM (inactive).
`O=C(O)C1CCC(=O)N1S(=O)(=O)c1ccccc1` (configuration not stated) was tested, and the GI50 [1] was > 100 µM (inactive), the GI50 [2] was > 100 µM (inactive) and the GI50 [3] was > 100 µM (inactive). For the same compound, the GI50 [4] was > 100 µM (inactive), the GI50 [5] was > 100 µM (inactive) and the GI50 [6] was > 100 µM (inactive). For the same compound, the GI50 [7] was > 100 µM (inactive), the GI50 [20] was > 100 µM (inactive) and the GI50 [8] was > 100 µM (inactive). The GI50 [9] was > 100 µM (inactive), the GI50 [10] was > 100 µM (inactive) and the GI50 [11] was > 100 µM (inactive). The GI50 [12] was > 100 µM (inactive), the GI50 [13] was > 100 µM (inactive) and the GI50 [14] was > 100 µM (inactive). For the same compound, the GI50 [15] was > 100 µM (inactive), the GI50 [16] was > 100 µM (inactive) and the GI50 [17] was > 100 µM (inactive). For the same compound, the GI50 [18] was > 100 µM (inactive) and the GI50 [19] was > 100 µM (inactive).
In the case of `O=c1oc2cc(O)ccc2c2oc3cc(O)ccc3c12` [COUMESTROL], the GI50 [1] is reported as 6.46 µM (inactive), the GI50 [2] is reported as > 125 µM (inactive) and the GI50 [3] is reported as 0.248 µM (active). For the same compound, the GI50 [4] was 42.1 µM (inactive), the GI50 [5] was 33.3 µM (inactive) and the GI50 [6] was 76 µM (inactive). For the same compound, the GI50 [7] was 32.7 µM (inactive), the GI50 [20] was 49.9 µM (inactive) and the GI50 [8] was 108 µM (inactive). The GI50 [9] was 79.6 µM (inactive), the GI50 [10] was > 19.8 µM (inactive) and the GI50 [11] was 4.18 µM (inactive). For the same compound, the GI50 [12] was 64.4 µM (inactive), the GI50 [13] was 9.89 µM (inactive) and the GI50 [14] was 45.2 µM (inactive). The GI50 [15] was 6.93 µM (inactive), the GI50 [16] was 59 µM (inactive) and the GI50 [17] was 77.4 µM (inactive). The GI50 [18] was 38.6 µM (inactive) and the GI50 [19] was 54.1 µM (inactive).
In the case of `CSCSCC(N)CO.Cc1[nH]c(=O)[nH]c(=O)c1/C=C/C(=O)O`, the GI50 [1] is reported as > 625 µM (inactive), the GI50 [2] is reported as > 625 µM (inactive) and the GI50 [3] is reported as > 625 µM (inactive). The GI50 [4] was > 625 µM (inactive), the GI50 [5] was > 625 µM (inactive) and the GI50 [6] was 582 µM (inactive). The GI50 [7] was > 625 µM (inactive), the GI50 [20] was 624 µM (inactive) and the GI50 [8] was > 625 µM (inactive). The GI50 [9] was > 625 µM (inactive), the GI50 [10] was > 625 µM (inactive) and the GI50 [11] was > 625 µM (inactive). For the same compound, the GI50 [12] was 618 µM (inactive), the GI50 [13] was > 625 µM (inactive) and the GI50 [14] was > 625 µM (inactive). For the same compound, the GI50 [15] was > 625 µM (inactive), the GI50 [16] was > 625 µM (inactive) and the GI50 [17] was > 625 µM (inactive). For the same compound, the GI50 [18] was > 625 µM (inactive) and the GI50 [19] was > 625 µM (inactive).
With `COc1ccccc1-c1cc(O)c2c(C)ccnc2n1` the GI50 [1] was 15.8 µM (inactive), the GI50 [2] was 52.4 µM (inactive) and the GI50 [3] was 27.6 µM (inactive). For the same compound, the GI50 [4] was 37.9 µM (inactive), the GI50 [20] was 33 µM (inactive) and the GI50 [8] was 19.3 µM (inactive). For the same compound, the GI50 [9] was 39 µM (inactive), the GI50 [11] was 15.8 µM (inactive) and the GI50 [16] was 6.1 µM (inactive). The GI50 [17] was 37 µM (inactive) and the GI50 [19] was 29.7 µM (inactive).
`O=C1OCc2cccc3c2-c2c1cccc2C(=O)OC3` was tested, and the GI50 [5] was > 100 µM (inactive), the GI50 [6] was > 100 µM (inactive) and the GI50 [7] was > 100 µM (inactive). For the same compound, the GI50 [20] was > 100 µM (inactive), the GI50 [9] was > 100 µM (inactive) and the GI50 [12] was > 100 µM (inactive). The GI50 [13] was > 100 µM (inactive), the GI50 [14] was > 100 µM (inactive) and the GI50 [15] was > 100 µM (inactive). The GI50 [17] was > 100 µM (inactive) and the GI50 [19] was > 100 µM (inactive).
`COC(=O)N1CC2C3C4CC(C(c5ccccc5)=C4c4ccccc4)C3C21` (configuration not stated) was tested, and the GI50 [2] was 27.7 µM (inactive), the GI50 [4] was 12.2 µM (inactive) and the GI50 [5] was 13.2 µM (inactive). For the same compound, the GI50 [6] was 13.4 µM (inactive), the GI50 [7] was 11.9 µM (inactive) and the GI50 [20] was 12.6 µM (inactive). The GI50 [8] was 16.8 µM (inactive), the GI50 [11] was 14 µM (inactive) and the GI50 [14] was 15.5 µM (inactive). For the same compound, the GI50 [16] was 18.1 µM (inactive), the GI50 [17] was 13.2 µM (inactive) and the GI50 [18] was 14.5 µM (inactive). For the same compound, the GI50 [19] was 17.7 µM (inactive).
`BrC1=CN2C[n+]3cc(Br)c4ccccc4c3N=C2c2ccccc21` was tested, and the GI50 [1] was 12.3 µM (inactive), the GI50 [2] was 17.9 µM (inactive) and the GI50 [3] was 24.9 µM (inactive). The GI50 [4] was 12.4 µM (inactive), the GI50 [5] was 4.54 µM (inactive) and the GI50 [6] was 8.59 µM (inactive). The GI50 [20] was 14 µM (inactive), the GI50 [8] was > 100 µM (inactive) and the GI50 [9] was 2.75 µM (inactive). The GI50 [14] was 2.88 µM (inactive), the GI50 [15] was 22.5 µM (inactive) and the GI50 [16] was 12.3 µM (inactive). The GI50 [18] was 13.8 µM (inactive).
For `Cc1ccc(OP2(=O)Oc3ccc4ccccc4c3CN2c2ccc(Cl)cc2)cc1C` (configuration not stated), the GI50 [1] was > 100 µM (inactive), the GI50 [2] was > 100 µM (inactive) and the GI50 [3] was > 100 µM (inactive). The GI50 [4] was > 100 µM (inactive), the GI50 [5] was > 100 µM (inactive) and the GI50 [6] was > 100 µM (inactive). For the same compound, the GI50 [7] was > 100 µM (inactive), the GI50 [20] was > 100 µM (inactive) and the GI50 [8] was > 100 µM (inactive). For the same compound, the GI50 [9] was > 100 µM (inactive), the GI50 [10] was > 100 µM (inactive) and the GI50 [11] was > 100 µM (inactive). The GI50 [12] was > 100 µM (inactive), the GI50 [13] was > 100 µM (inactive) and the GI50 [14] was > 100 µM (inactive). The GI50 [15] was > 100 µM (inactive), the GI50 [16] was > 100 µM (inactive) and the GI50 [17] was > 100 µM (inactive). For the same compound, the GI50 [18] was > 100 µM (inactive) and the GI50 [19] was > 100 µM (inactive).
For `O=[N+]([O-])c1cnccc1-n1nnc2ccccc21`, the GI50 [1] was 16 µM (inactive), the GI50 [2] was 32.1 µM (inactive) and the GI50 [3] was 28.3 µM (inactive). For the same compound, the GI50 [4] was 12.6 µM (inactive), the GI50 [5] was 22.5 µM (inactive) and the GI50 [6] was 20.2 µM (inactive). The GI50 [7] was 24.4 µM (inactive), the GI50 [8] was 20.2 µM (inactive) and the GI50 [9] was 17.3 µM (inactive). For the same compound, the GI50 [10] was 13.8 µM (inactive), the GI50 [11] was 18.9 µM (inactive) and the GI50 [12] was 27 µM (inactive). The GI50 [13] was 11.5 µM (inactive), the GI50 [14] was 17.8 µM (inactive) and the GI50 [15] was 16 µM (inactive). The GI50 [16] was 24.3 µM (inactive), the GI50 [17] was 22 µM (inactive) and the GI50 [18] was 21.5 µM (inactive). For the same compound, the GI50 [19] was 17.3 µM (inactive).
